# Data reported in publication PMC10504874 (Journal of medicinal chemistry, 2021).
# Where two headings read alike, the source gives them in different places. Residues, ends and D or L forms follow the SMILES beside them. *: point of attachment. Cbz = O=C(OCc1ccccc1)*
# Assays:
# [1] = Stability of prodrugs in buffer without esterase; assay type: physicochemical; details: buffer pH 7.5, over 3 h
# cruzain [2] = biological target: T1, cruzain (Trypanosoma cruzi, UniProt P25779); test: Cruzain inhibition, fluorogenic substrate Cbz-Phe-Arg-AMC time courses; assay type: biochemical
# T1 sequence (P25779 123-337 limits assumed): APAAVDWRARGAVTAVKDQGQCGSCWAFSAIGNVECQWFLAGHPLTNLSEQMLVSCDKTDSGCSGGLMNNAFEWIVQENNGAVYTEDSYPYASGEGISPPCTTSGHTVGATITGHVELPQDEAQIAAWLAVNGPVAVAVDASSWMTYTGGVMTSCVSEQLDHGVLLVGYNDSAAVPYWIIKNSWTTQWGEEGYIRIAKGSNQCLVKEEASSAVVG
# [3] = system: C2C12 murine cardiomyoblast cells; test: Toxicity against host cardiomyoblasts in the T. cruzi infection assay; assay type: cell-based; details: at up to 40 μM
# [4] = system: T. cruzi-infected cardiomyoblasts; test: T. cruzi-infected C2C12 murine cardiomyoblast assay; assay type: cell-based; details: Trypanosoma cruzi, C2C12, in Mus musculus, 48 h, read-out: T. cruzi-infected cardiomyoblasts EC50, C2C12 cells, T. cruzi Ca-I/72, 2 days, 0.02–40 μM
# cruzain [5] = biological target: T1, cruzain; test: biochemical; details: read-out: Residence time τ=1/kobs
# [6] = Detection of aldehyde content using phenylhydrazine; assay type: physicochemical; details: 0.2 mM compound, 1 mM phenylhydrazine; for Reaction with excess phenylhydrazine (in words): 2 h; for kobs of phenylhydrazone formation: Abs 282 nm, pH 7.5 buffer lacking DTT
# [7] = Pharmacokinetic evaluation in mice by intravenous administration; assay type: in vivo; details: data not shown
# human cathepsin L = human cathepsin L (Homo sapiens, UniProt P07711); test: Human cathepsin L inhibition; assay type: biochemical
# Chain of human cathepsin L (P07711 114-333): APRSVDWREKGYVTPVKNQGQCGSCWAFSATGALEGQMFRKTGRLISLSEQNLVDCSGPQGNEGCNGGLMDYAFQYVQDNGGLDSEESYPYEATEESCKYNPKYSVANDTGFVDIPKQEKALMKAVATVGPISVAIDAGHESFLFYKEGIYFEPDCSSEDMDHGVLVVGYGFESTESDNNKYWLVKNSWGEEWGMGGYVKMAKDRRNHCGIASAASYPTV
# T. b. brucei BSFs [8] = details: read-out: EC50 in T. b. brucei BSFs; cited from earlier work
# T. b. brucei BSFs [9] = test: Axenic cultures of T. b. brucei bloodstream forms, growth inhibition; details: Trypanosoma brucei, read-out: T. b. brucei BSFs EC50
smiles,measurement,setting,value
"CC(=O)OC1Oc2ccccc2C[C@@H]1NC(=O)[C@H](Cc1ccccc1)NC(=O)N1CCN(C)CC1 (stereo partly drawn) [Compound 13, (3S)-3-((S)-2-(4-methylpiperazine-1-carboxamido)-3-phenylpropanamido)chroman-2-yl acetate]",Degradation in buffer without esterase,[1],about 10%
"O=C[C@H](Cc1ccccc1)NC(=O)[C@H](Cc1ccccc1)NC(=O)OCc1ccccc1 [Compound 1, Cbz-Phe-Phe-H] (Cbz-Phe-Phe-aldehyde)","k4, rate constant for conversion of EI* back to EI","cruzain [2]; from replot of kobs vs [I], eq 3",(7.6±0.6)×10^–4 s^–1
same,Toxicity against the host cardiomyoblasts,[3],significant cytotoxicity
same,EC50,[4],400 nM
same,residence time,cruzain [5],52 min
O=C(N[C@@H](Cc1ccccc1)C(=O)N[C@H]1Cc2cc(F)ccc2OC1O)OCc1ccccc1 (some centres unmarked) [Compound 9],residence time,cruzain [5],2.5 to 5.5 min
COC(=O)c1ccc2c(c1)C[C@H](NC(=O)[C@H](Cc1ccccc1)NC(=O)OCc1ccccc1)C(O)O2 (some centres unmarked) [Compound 10],Fold increase in potency versus 2,cruzain [2],3 fold
same,residence time,cruzain [5],2.5 to 5.5 min
"CCOC1Oc2ccccc2C[C@@H]1NC(=O)[C@H](Cc1ccccc1)NC(=O)N1CCN(C)CC1 (stereo partly drawn) [Compound 16, N-((2S)-1-(((3S)-2-ethoxychroman-3-yl)amino)-1-oxo-3-phenylpropan-2-yl)-4-methylpiperazine-1-carboxamide]",Cruzain inhibition by prodrugs (in words),cruzain [2],did not inhibit cruzain
CN1CCN(C(=O)N[C@@H](Cc2ccccc2)C(=O)N[C@H]2Cc3ccccc3OC2O)CC1 (some centres unmarked) [Compound 12],Reaction with excess phenylhydrazine (in words),[6],remained intact after 2 h
same,kobs of phenylhydrazone formation,[6],negligible
same,Half-life in mice (in words),[7],short half-life
same,residence time,cruzain [5],26 min
COc1ccccc1C[C@@H](C=O)NC(=O)[C@H](Cc1ccccc1)NCC(=O)OCc1ccccc1 [Compound 5],Fold less active than aldehyde 1 versus cruzain,cruzain [2],50 fold
CC(C)[C@H](NC(=O)OCc1ccccc1)C(=O)N[C@@H](CC1CCCCC1)C(=O)N[C@H](C=O)Cc1ccc[nH]c1=O [Compound 18],Inhibition of human cathepsin L (in words),human cathepsin L,inhibited human cathepsin L
CC(C)OC1Oc2ccccc2C[C@@H]1NC(=O)[C@H](Cc1ccccc1)NC(=O)N1CCN(C)CC1 (some centres unmarked) [Compound 17],Cruzain inhibition by prodrugs (in words),cruzain [2],did not inhibit cruzain
"O=C(N[C@@H](Cc1ccccc1)C(=O)N[C@H]1Cc2ccccc2OC1O)OCc1ccccc1 (stereo partly drawn) [Compound 2, Cbz-Phe-o-Tyr-H]",Ratio Ki*(SMAI)/Ki*(free aldehyde counterpart),"cruzain [2]; Ki*(12)/Ki*(11), Ki*(2)/Ki*(1)",110
same,residence time,cruzain [5],2.5 to 5.5 min
O=C(N[C@@H](Cc1ccccc1)C(=O)N[C@H]1Cc2cc(Cl)ccc2OC1O)OCc1ccccc1 (some centres unmarked) [Compound 8],residence time,cruzain [5],2.5 to 5.5 min
"CN1CCN(C(=O)N[C@@H](Cc2ccccc2)C(=O)N[C@@H]2Cc3ccccc3C[C@H]2O)CC1 (mixture of isomers) [Compound 3, N-((S)-1-(((2S,3S)-3-hydroxy-1,2,3,4-tetrahydronaphthalen-2-yl)amino)-1-oxo-3-phenylpropan-2-yl)-4-methylpiperazine-1-carboxamide and N-((S)-1-(((2R,3R)-3-hydroxy-1,2,3,4-tetrahydronaphthalen-2-yl)amino)-1-oxo-3-phenylpropan-2-yl)-4-methylpiperazine-1-carboxamide]",Cruzain inhibition (in words),cruzain [2]; at ≤100 μM,did not inhibit cruzain
"CN1CCN(C(=O)N[C@@H](Cc2ccccc2)C(=O)N[C@H](C=O)CCc2ccccc2)CC1 [Compound 11, 4-Methyl-N-((S)-1-oxo-1-(((S)-1-oxo-4-phenylbutan-2-yl)amino)-3-phenylpropan-2-yl)piperazine-1-carboxamide]",Reaction with excess phenylhydrazine (in words),[6],completely converted to phenylhydrazone
same,kobs of phenylhydrazone formation,[6],(2.61±0.05)×10^–4 s^–1
"Cc1ccc2c(c1)C[C@H](NC(=O)[C@H](Cc1ccccc1)NC(=O)OCc1ccccc1)C(O)O2 (stereo partly drawn) [Compound 7, Benzyl ((2S)-1-(((3S)-2-hydroxy-6-methylchroman-3-yl)amino)-1-oxo-3-phenylpropan-2-yl)carbamate]",residence time,cruzain [5],2.5 to 5.5 min
N=C(N)c1ccc(/N=N/Nc2ccc(C(=N)N)cc2)cc1 [diminazene],EC50,T. b. brucei BSFs [8],990 nM
"CN1CCN(C(=O)N[C@@H](Cc2ccccc2)C(=O)N[C@H](/C=C/S(=O)(=O)c2ccccc2)CCc2ccccc2)CC1 [K777, reference compound]",EC50,T. b. brucei BSFs [9],90 ± 60 nM
same,Toxicity against the host cardiomyoblasts,[3],significant cytotoxicity
COc1ccc2c(c1)C[C@H](NC(=O)[C@H](Cc1ccccc1)NC(=O)OCc1ccccc1)C(O)O2 (some centres unmarked) [Compound 6],Fold lower activity than 7,cruzain [2],over 3 fold
same,Fold more weakly binding than un-substituted SMAI 2,cruzain [2],7 fold
same,residence time,cruzain [5],2.5 to 5.5 min
